# Results: patent US8853248B2, “(1,2,3-triazolyl)sulfonyl derivatives” (priority 2012, dated 2014)
# Columns and labels:
# [1] = system: adjuvant-induced arthritis; format: in vivo, rat (male Lewis rats); details: 30 mg/kg daily by intubation, 7 treatment days; day 28 minus day 21; micronized compound; standard deviation in parentheses
# Procedure: As mentioned earlier, the compounds of formula (1) and pharmaceutically acceptable salts of compounds of formula (1) are useful in the treatment or prevention of inflammations. For example, they can be used as anti-inflammatory agents in the treatment of inflammatory joint diseases, such as arthritis, and in other diseases where inflammation is the inherent cause.
# The adjuvant was prepared by homogenizing 170 mg of heat-killed and dried mycobacterium tuberculosis (Difco) in 22.7 mL of ‘Incomplete Freund's Adjuvant’ (ICFA, Difco). Male Lewis rats with body weights of 130-150 g were injected i.d. at the base of the tail with 0.1 ml of adjuvant. The non-diseased animals received 0.1 mL of ICFA i.d. The animals were housed individually and received feed and water ad libitum. The thus-induced arthritis was allowed to develop without treatment during 21 days. On day 21 the body weight of each animal was determined. At the same time, the volumes of the two hind paws of each animal were measured by immersing the paws in an aqueous plethysmograph up to the height of the lateral malleolus. […] Paw volumes and body weight were recorded diurnally. At the end of the treatment period (day 28), body weights and volumes of the hind paws were again determined. The changes over the treatment period were calculated. […] Subsequently, the animals were sacrificed and the liver weights recorded. […]
# ovine COX-1 = biological target: T1, ovine COX-1 (Ovis aries, UniProt P05979); test: COX activity assay (Cayman colorimetric kit), COX-1; format: biochemical; details: at a level of 300 μM; purified enzyme, peroxidase activity read at 590 nm
# T1 construct: purchased Cayman Chemicals
# T1 sequence (P05979 25-600): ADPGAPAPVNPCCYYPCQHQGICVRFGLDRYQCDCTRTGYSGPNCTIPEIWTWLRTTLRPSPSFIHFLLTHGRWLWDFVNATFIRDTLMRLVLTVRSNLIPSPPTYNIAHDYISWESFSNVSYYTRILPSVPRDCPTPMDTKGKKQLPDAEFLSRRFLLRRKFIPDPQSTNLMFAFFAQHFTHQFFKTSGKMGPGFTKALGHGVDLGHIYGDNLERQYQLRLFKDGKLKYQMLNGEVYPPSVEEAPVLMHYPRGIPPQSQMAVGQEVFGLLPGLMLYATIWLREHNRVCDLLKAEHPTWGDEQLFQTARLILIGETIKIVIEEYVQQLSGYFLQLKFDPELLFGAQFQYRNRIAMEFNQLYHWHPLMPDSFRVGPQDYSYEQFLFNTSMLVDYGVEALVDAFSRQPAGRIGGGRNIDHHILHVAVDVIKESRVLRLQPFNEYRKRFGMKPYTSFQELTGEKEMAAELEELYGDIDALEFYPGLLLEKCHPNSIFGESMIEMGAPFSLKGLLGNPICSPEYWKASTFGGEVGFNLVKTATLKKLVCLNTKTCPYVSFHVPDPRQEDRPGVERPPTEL
# Procedure: (§1) COX activity was measured using an assay kit obtained from Cayman Chemicals in accord with the instruction manual of the manufacturer “COX Activity Assay, Catalog No. 760151, Colorimetric Assay for the Determination of COX Activity.” The enzyme activity was determined by the peroxidase activity of cyclooxygenases on arachidonic acid and monitored colorimetrically at 590 nm by the appearance of oxidized N,N,N′,N′-tetramethyl-p-phenylenediamine. Both ovine COX-1 and human recombinant COX-2 were obtained from Cayman Chemicals.
# human recombinant COX-2 = biological target: T2, human recombinant COX-2 (Homo sapiens, UniProt P35354); test: COX activity assay (Cayman colorimetric kit), COX-2; format: biochemical; details: purified enzyme, peroxidase activity read at 590 nm
# T2 construct: purchased Cayman Chemicals
# T2 sequence (P35354 18-604): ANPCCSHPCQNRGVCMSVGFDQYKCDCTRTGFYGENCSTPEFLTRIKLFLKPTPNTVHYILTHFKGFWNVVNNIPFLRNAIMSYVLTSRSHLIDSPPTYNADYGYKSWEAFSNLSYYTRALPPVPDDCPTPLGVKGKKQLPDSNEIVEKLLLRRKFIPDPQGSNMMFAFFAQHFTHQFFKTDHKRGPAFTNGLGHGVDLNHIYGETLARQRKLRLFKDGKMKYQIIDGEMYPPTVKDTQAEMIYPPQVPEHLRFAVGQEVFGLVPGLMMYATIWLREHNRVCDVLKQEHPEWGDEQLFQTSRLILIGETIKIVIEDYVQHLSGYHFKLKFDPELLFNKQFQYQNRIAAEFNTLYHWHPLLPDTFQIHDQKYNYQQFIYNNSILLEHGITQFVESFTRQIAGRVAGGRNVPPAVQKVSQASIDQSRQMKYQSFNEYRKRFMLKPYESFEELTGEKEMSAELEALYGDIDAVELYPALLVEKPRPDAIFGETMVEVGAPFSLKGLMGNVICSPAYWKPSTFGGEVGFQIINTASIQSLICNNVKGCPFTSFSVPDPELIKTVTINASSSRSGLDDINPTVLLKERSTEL
# Procedure: as §1
compound,measurement,setting,value
"CNS(=O)(=O)c1nn[nH]c1-c1cc(C(C)(C)C)c(O)c(C(C)(C)C)c1 [Compound 1i, 5-(3,5-di-tert-butyl-4-hydroxy-phenyl)-N-methyl-1H-triazole-4-sulfonamide]",Volume change of left paw,[1],−0.73 (0.08) mL
same,Volume change of right paw,[1],−0.63 (0.11) mL
same,effect on COX-1 activity,ovine COX-1,no effect
same,IC50,human recombinant COX-2,68 µM
